These are literature values, as cited in US20110305738A1, “Oxygenating Oral Compositions” (priority 2010, published 2011).

The structures appear in SMILES notation.

Assay in series [1]: not given
The source holds these as a separate data set.

On to `NC(N)=O.OO` [Carbamide peroxide], for which, under “1% solution”, the pH upon dissolution result is listed as “approximately 4.05”. The “pH when solubilized in water” value (saturated solution) was “approximately 3.40”. Also, the water solubility in series [1] (at 20 °C) is reported as 800 grams per liter. Besides, in series [1] (water at 20° C.), the “saturated solution concentration of carbamide peroxide” value is 44.4%.
